Values of other authors as cited in the PKSmart pharmacokinetics tables (Seal et al. 2025).

What was measured:
[1] = Lombardo et al. 2013, J Clin Pharmacol 53:178, doi 10.1177/0091270012440282; details: for Vd / clearance: in vivo, iv; for fraction unbound: plasma
[2] = Lombardo, Berellini, Obach 2018, Drug Metab Dispos 46:1466, doi 10.1124/dmd.118.082966; details: human; for MRT / Vd / clearance / half-life: in vivo, iv; for fraction unbound: plasma

Compound	Vd ([1]; dog) [L/kg]	clearance ([1]; dog) [mL/min/kg]	fraction unbound ([1]; rat)	MRT [2] [h]	Vd [2] [L/kg]	clearance [2] [mL/min/kg]	half-life [2] [h]	fraction unbound [2]	Vd ([1]; rat) [L/kg]	clearance ([1]; rat) [mL/min/kg]	fraction unbound ([1]; dog)	Vd ([1]; monkey) [L/kg]	clearance ([1]; monkey) [mL/min/kg]	fraction unbound ([1]; monkey)
CON=C(C(=O)NC1C(=O)N2C(C(=O)O)=C(COC(C)=O)CS[C@H]12)c1csc(N)n1 (some centres not stated)	0.5	8.13	0.59	1.2	0.19	2.7	1.2	0.6	–	–	–	–	–	–
CC[C@@]1(O)C(=O)OCc2c1cc1n(c2=O)Cc2cc3c(N)cccc3nc2-1	–	–	–	5.6	2.2	6.5	7	0.003	5	150	–	–	–	–
COc1cc2c3cc1Oc1cc(ccc1O)C[C@@H]1c4c(cc(OC)c([O-])c4Oc4ccc(cc4)C[C@@H]3N(C)CC2)CC[N+]1(C)C	0.37	3.73	–	2.2	0.45	3.4	2	0.58	–	–	–	–	–	–
CC(C)(ON=C(C(=O)NC1C(=O)N2C(C(=O)O)=C(C[n+]3ccccc3)CS[C@H]12)c1csc(N)n1)C(=O)[O-] (some centres not stated)	0.21	3.2	–	2.2	0.31	2.4	1.8	0.79	0.3	8.7	1	0.26	2.1	0.945
Nc1nc(C(=NO)C(=O)NC2C(=O)N3C(C(=O)O)=C(C=C4CCN(CC(F)(F)F)C4=O)CS[C@H]23)cs1 (some centres not stated)	0.18	2.7	0.025	4.8	0.11	0.38	3.8	0.043	0.15	0.95	0.16	0.12	0.77	0.05
c1ccc2c(c1)OCC(C1=NCCN1)O2 (configuration not stated)	–	–	–	5.5	3.3	10	4.2	–	3.1	71.2	–	–	–	–
Cn1c(=O)c2c(ncn2CC(O)CO)n(C)c1=O (configuration not stated)	–	–	–	1.5	0.42	4.8	1.7	–	1.04	24.7	–	–	–	–
CON=C(C(=O)NC1C(=O)N2C(C(=O)O)=C(CSc3nnnn3C)CS[C@H]12)c1csc(N)n1 (some centres not stated)	0.3	8.91	–	0.77	0.2	3.65	0.89	0.31	0.28	7.46	–	–	–	–
NC(=O)OC[C@@H]1C(=NC(=O)C(NOCC(=O)O)c2csc(N)n2)C(=O)N1S(=O)(=O)O (some centres not stated)	0.1	5.5	0.7	2	0.18	1.5	1.6	0.72	0.1	22	0.89	0.12	4.5	0.76
CC1=NC(=O)[C@](CCN(C(C)C)C(C)C)(c2ccccc2)[C@H]2CCCCN12	1.3	12	0.63	1.58	0.58	6.79	1.89	0.7	4.2	48	0.618	1.6	20	0.656
COc1cc(NCc2ccc3nc(N)nc(N)c3c2C)cc(OC)c1OC	11.7	33.2	–	17	0.77	0.77	17	0.05	9.2	71.1	1	1.56	8.5	0.1
CCC#CC[C@H](C)[C@H](O)C#C[C@@H]1[C@H]2C/C(=C/COCC(=O)O)C[C@H]2C[C@H]1O	–	–	–	0.35	0.08	3.8	1.1	–	1	49	–	1.2	14.3	–
O=C1c2c(O)ccc(O)c2C(=O)c2c(NCCNCCO)ccc(NCCNCCO)c21	26.6	10	–	25	12	7.9	53	0.25	–	–	–	–	–	–
CC(=O)Oc1ccccc1C(=O)O	–	–	–	0.3	0.22	12	0.26	0.68	0.4	87	–	–	–	–
CSc1ccc(C(=O)c2[nH]c(=O)[nH]c2C)cc1	2.1	26	–	1.33	1.48	19.1	1.94	0.3	–	–	–	–	–	–
C[C@]12C=CC(=O)C=C1CC[C@@H]1[C@@H]2[C@@H](O)C[C@@]2(C)[C@H]1CC[C@]2(O)C(=O)CO	–	–	0.32	–	–	–	–	0.25	1.74	98.7	–	–	–	–
Cc1cn([C@H]2C[C@H](N=[N+]=[N-])[C@@H](CO)O2)c(=O)[nH]c1=O	1	14	–	1.2	1.8	–	1.3	0.8	–	–	0.827	–	–	–
CCN(CCO)CCCC(C)Nc1ccnc2cc(Cl)ccc12 (configuration not stated)	–	–	0.62	1300	700	11	850	0.57	14.6	28.2	–	–	–	–
CO[C@]12CC[C@@]3(C[C@@H]1[C@](C)(O)C(C)(C)C)[C@H]1Cc4ccc(O)c5c4[C@@]3(CCN1CC1CC1)[C@H]2O5	–	–	–	–	–	–	3.2	–	8.37	0.05	–	–	–	–
O=C(O)Cc1ccccc1Nc1c(Cl)cccc1Cl	0.19	1.4	–	1	0.22	3.5	1.4	–	1.39	16.8	–	0.32	8.5	–
CCCN(CCC)S(=O)(=O)c1ccc(C(=O)O)cc1	0.46	0.34	–	8.7	0.13	0.25	5.9	–	–	–	0.15	–	–	–
C[C@@H](O)C1C(=O)N2C(C(=O)O)=C(S[C@@H]3CNC(C(=O)N(C)C)C3)[C@H](C)[C@H]12 (some centres not stated)	0.22	4	0.5	1.3	0.3	3.9	1	0.87	0.14	26.4	0.726	0.23	7.5	0.666
CCN1CCC[C@H]1CNC(=O)c1c(OC)ccc(Br)c1OC	1.6	4.9	0.74	6.4	0.65	1.7	5.5	–	4.5	170	0.12	–	–	–
O=C1c2ccccc2S(=O)(=O)N1CCCCNC[C@H]1CCc2ccccc2O1	–	–	0.054	1.6	0.21	2.2	1.2	–	1.48	38.3	–	–	–	–
Cc1ccc(C(=O)c2cc(O)c(O)c([N+](=O)[O-])c2)cc1	0.16	1.9	–	1.1	0.12	1.9	1.1	0.0012	0.21	8.8	–	–	–	–
CON=C(C(=O)NC1C(=O)N2C(C(=O)[O-])=C(C[n+]3ccc(N)n3CCO)CS[C@H]12)c1csc(N)n1 (some centres not stated)	0.39	3.5	–	2.78	0.3	1.77	2.9	–	0.2	9.6	–	0.28	1.9	–

Compound	Vd ([1]; dog) [L/kg]	clearance ([1]; dog) [mL/min/kg]	fraction unbound ([1]; rat)	MRT [2] [h]	Vd [2] [L/kg]	clearance [2] [mL/min/kg]	half-life [2] [h]	fraction unbound [2]	Vd ([1]; rat) [L/kg]	clearance ([1]; rat) [mL/min/kg]	fraction unbound ([1]; dog)	Vd ([1]; monkey) [L/kg]	clearance ([1]; monkey) [mL/min/kg]	fraction unbound ([1]; monkey)
CC(c1ncncc1F)[C@](O)(Cn1cncn1)c1ccc(F)cc1F (some centres not stated)	0.88	–	0.44	4.4	2.2	–	5.6	0.42	1.78	–	0.49	–	–	–
CC[C@H](OC(C)=O)C(C[C@H](C)N(C)C)(c1ccccc1)c1ccccc1	5.9	28	–	26	8.3	5.4	–	0.2	–	–	–	–	–	–
CN1CCCC(n2nc(Cc3ccc(Cl)cc3)c3ccccc3c2=O)CC1 (configuration not stated)	8.1	50	0.1	27	15	9	22	0.17	1.8	58	0.0826	–	–	–
CCC(C)C(=O)O[C@H]1C[C@H](O)C=C2C=C[C@H](C)[C@H](CC[C@@H](O)C[C@@H](O)CC(=O)O)[C@H]21 (some centres not stated)	–	–	0.33	–	0.46	14	0.78	–	0.19	36	–	–	–	–
CC(C)c1cccc(C(C)C)c1O	2.46	39.8	0.03	2.2	4.7	36	3.2	0.016	1.37	107	0.02	–	–	–
C[C@@H](O)C1C(=O)N2C(C(=O)O)=C(SCCOC(N)=O)S[C@H]12 (some centres not stated)	0.24	–	–	0.67	0.3	–	0.8	0.35	0.14	–	–	0.21	–	–
O=[N+]([O-])O[C@H]1CO[C@H]2[C@@H]1OC[C@H]2O[N+](=O)[O-]	3	180	–	1	1.9	31	1.7	0.72	2.6	122	–	1.7	58.8	–
CNCCCN1c2ccccc2CCc2ccccc21	–	–	–	23	15	–	22	–	19.8	–	–	–	–	–
CCCCS(=O)(=O)NC(Cc1ccc(OCCCCC2CCNCC2)cc1)C(=O)O (configuration not stated)	0.52	36.4	0.15	1.8	0.34	3	1.6	0.36	1.42	–	0.55	–	–	–
C[C@@H]1O[C@@H]1P(=O)(O)O	0.77	6.9	–	2.7	0.32	2	1.9	–	–	–	1	–	–	–
C[C@@H](O)C1C(=O)N2C(C(=O)[O-])=C(SC3Cn4cnc[n+]4C3)[C@H](C)[C@H]12 (some centres not stated)	0.21	4.7	0.96	1.3	0.2	2.5	1.1	0.92	0.19	13	0.94	0.25	5.5	–
CCOC(=O)C1[C@@H](OC(=O)c2ccccc2)C[C@@H]2CC[C@H]1N2C (some centres not stated)	2.68	42.2	–	2	1.6	13	1.5	0.64	–	–	–	–	–	–
CC#CCC(C)[C@H](O)/C=C/[C@@H]1[C@H]2C/C(=C/CCCC(=O)O)C[C@H]2C[C@H]1O (some centres not stated)	0.93	67.2	–	–	0.37	16	0.57	0.4	0.79	32.4	–	–	–	–
CON=C(C(=O)NC1C(=O)N2C(C(=O)[O-])=C(C[n+]3cccc4c3CCC4)CS[C@H]12)c1csc(N)n1 (some centres not stated)	0.22	3.2	–	2.1	0.24	1.9	1.7	0.9	0.3	9.5	0.542	0.27	2.4	0.446
CO[C@@]1(NC(=O)C(C(=O)O)c2ccc(O)cc2)C(=O)N2C(C(=O)O)=C(CSc3nnnn3C)CO[C@@H]21 (some centres not stated)	0.2	2.2	1	3.9	0.17	0.72	2.9	0.39	0.25	9.1	0.66	0.19	2.3	1
CC(=O)Nc1nnc(S(N)(=O)=O)s1	–	–	0.2	9.5	0.37	0.65	–	0.04	0.21	68	–	–	–	–
Cc1cc(=O)n(-c2ccccc2)n1C	0.09	6.3	1	20	0.77	0.64	12	–	0.81	9.1	0.6	0.74	4.6	0.908
Nc1nc(N)c2nc(-c3ccccc3)c(N)nc2n1	–	–	–	3.4	13	63	4.3	0.42	2.2	10.1	–	–	–	–
CCCCCNC(=O)c1coc([C@H]2[C@@H](Cc3ccccc3CCC(=O)O)[C@@H]3CC[C@H]2O3)n1	11	65	–	11	4.4	6.4	22	–	2.8	87.5	–	5.5	19.1	–
Nc1cc(-c2ccncc2)c[nH]c1=O	1.2	6	–	2.4	1.3	8.9	2	0.89	–	–	–	–	–	–
O=C1CN=C(c2ccccc2Cl)c2cc([N+](=O)[O-])ccc2N1	2.49	24	–	55	2.9	0.88	38	–	3.1	70.5	0.18	6.8	14.3	0.121
COc1cc(Cc2cnc(N)nc2N)cc(OC)c1OC	1.74	–	0.51	12	1.5	–	9.6	–	2.1	–	0.708	–	–	–
Nc1ccn([C@@H]2O[C@H](CO)[C@@H](O)[C@@H]2O)c(=O)n1	0.86	11.3	–	0.28	0.67	41.7	0.17	–	–	–	–	–	–	–
NCCC(O)(P(=O)(O)O)P(=O)(O)O	–	–	–	12	1.8	2.5	32	0.7	0.18	15.2	–	–	–	–
CCCCN1CCCCC1C(=O)Nc1c(C)cccc1C (configuration not stated)	0.7	32	0.23	2.12	0.665	6.5	1.95	0.043	2.4	76	0.11	0.66	10	0.051
C=c1cc(C)[nH]c1=Cc1c(O)[nH]c2ccccc12	1.4	52	0.007	1.17	0.98	14	0.83	0.008	1.6	45	–	1.63	27.7	–
